Results: patent US20220380341A1, “INHIBITORS OF HIV-1 NEF FOR THE TREATMENT OF HIV DISEASE” (priority 2018, published 2022)
Read-outs that look alike come from different tables or passages of the source.

Key:
TZM-bl cell line = format: cell-based
Procedure, shortened: (§1)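 Read-out is luciferase from an integrated HIV-1 LTR reporter in TZM-bl cells, 48 h after HIV-1NL4-3 infection in the presence of 1 μM compound. Scale set by DMSO-treated wild-type-infected cells (0%) and Nef-defective virus (100% Nef-dependent effect). Cell Titer Blue measures cytotoxicity without virus.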

HIV-1NL4-3 = test: HIV-1 infectivity assay in TZM-bl reporter cell line (LTR-luciferase, 48 h); format: cell-based; settings: for inhibition at 1 µM: Human immunodeficiency virus 1, TZM-bl
Procedure, shortened: as §1

HIV-1 NefNL4-3 = HIV-1 NefNL4-3 (Human immunodeficiency virus type 1 group M subtype B, UniProt P03406, A33V/T15A/T51N/V11I); test: Surface plasmon resonance binding to recombinant full-length Nef (NL4-3); settings: for RU30/RUNef (extent of binding): response units at 30 μM relative to Nef immobilized on the SPR chip
[1] = 1.0 μM, TZM-bl reporter cell line, Table 4, read-out: % Infectivity Inhibition
[2] = 48 h, Table 1, TZM-bl cells, 1 μM, 48 h, 100% = Nef-defective HIV-1, read-out: HIV-1 Infectivity % Inhibition Norm. to Δ-Nef @ 1 μM
[3] = KD, M, Table 4, SPR fit 2-step induced fit, KD = koff/kon × koff2/(koff2 + kon2)
[4] = Nef NL4-3 Binding, SPR 2-state fitting KD, Table 1, 2-step induced-fit model
[5] = Table 4, 2-step induced fit, T = 1/koff2
[6] = read-out: Nef NL4-3 Binding, SPR 1:1 or 2-site fitting KD2, Table 1, 2-site fit, second component
[7] = Table 1, 1:1 Langmuir fit where the KD2 cell says '1 to 1 fitting', else 2-site fit
[8] = Table 4, 1:1 Langmuir fit, T = 1/koff
[9] = KD, M, Table 4, SPR fit 1:1 Langmuir, KD = koff/kon

SMILES | % Cell Viability (TZM-bl cell line; human, 1 μM) [%] | Percent Viability @ 1 μM (TZM-bl cells) (TZM-bl cell line; human, 1 μM) [%] | inhibition at 1 µM (HIV-1NL4-3; [1]) [%] | inhibition at 1 µM (HIV-1NL4-3; [2]) [%] | RU30/RUNef (extent of binding) (HIV-1 NefNL4-3) | Kd (HIV-1 NefNL4-3) [nM] | T, minutes (residence time) (HIV-1 NefNL4-3; [8]) | Kd (HIV-1 NefNL4-3; [9]) [nM] | also measured
O=C(C1CC1)N1CCC(CCc2c(C3CC3)nn(-c3nc4cc(Cl)ccc4[nH]3)c2O)CC1 [Compound I-711, 1-(5-chloro-1H-1,3-benzodiazol-2-yl)-4-[2-(1-cyclopropanecarbonylpiperidin-4-yl)ethyl]-3-cyclopropyl-1H-pyrazol-5-ol] | 97.2 | 97.2 | 0 | -0.4 | 1.96E- 02 |  |  |  | Kd (HIV-1 NefNL4-3; [3]): 3290 nM; Kd (HIV-1 NefNL4-3; [4]): 3290 nM; T, minutes (residence time) (HIV-1 NefNL4-3; [5]): 5.97E + 00 minutes; Kd (HIV-1 NefNL4-3; [6]): 8640 nM
CC[C@H](C)[C@H](O)C(=O)N1CCC(c2nn(-c3nc4ccccc4[nH]3)c(O)c2CCc2ccc(F)cc2)CC1 [Compound I-732, (2S,3S)-1-{4-[1-(1H-1,3-benzodiazol-2-yl)-4-[2-(4-fluorophenyl)ethyl]-5-hydroxy-1H-pyrazol-3-yl]piperidin-1-yl}-2-hydroxy-3-methylpentan-1-one] | 91.0 | 91.0 | 85.5 | 85.5 | 3.09E- 03 | 630 |  |  | Kd (HIV-1 NefNL4-3; [3]): 4210 nM; Kd (HIV-1 NefNL4-3; Nef NL4-3 Binding, SPR 1:1 or 2-site fitting KD2, Table 1, 2-site fit, second component): 1770 nM; Kd (HIV-1 NefNL4-3; [4]): 4210 nM; T, minutes (residence time) (HIV-1 NefNL4-3; [5]): 3.78E + 00 minutes
Oc1c(CCc2ccc(F)cc2)c(CC2CCN(Cc3ccccn3)CC2)nn1-c1nc2ccccc2[nH]1 [Compound I-807, 1-(1H-1,3-benzodiazol-2-yl)-4-[2-(4-fluorophenyl)ethyl]-3-({1-[(pyridin-2-yl)methyl]piperidin-4-yl}methyl)-1H-pyrazol-5-ol] |  | 99.0 |  | 40.4 |  |  |  |  | Nef NL4-3 Binding, SPR 1:1 or 2-site fitting KD1 (HIV-1 NefNL4-3; [7]): No Interaction
O=C(COCc1ccncc1)N1CCC(Cc2nn(-c3nc4ccccc4[nH]3)c(O)c2CCc2ccc(F)cc2)CC1 [Compound I-769, 1-(4-{[1-(1H-1,3-benzodiazol-2-yl)-4-[2-(4-fluorophenyl)ethyl]-5-hydroxy-1H-pyrazol-3-yl]methyl}piperidin-1-yl)-2-[(pyridin-4-yl)methoxy]ethan-1-one] |  |  |  |  | 4.88E- 03 |  | 9.47E + 00 minutes |  | % Cell Viability (TZM-bl cell line; 1.0 μM, uninfected TZM-bl, CellTiter-Blue, Table 4): 98.8%; Percent Viability @ 1 μM (TZM-bl cells) (TZM-bl cell line; Table 1, uninfected TZM-bl cells, 1 μM, Cell Titer Blue): 98.8%; % Infectivity Inhibition (HIV-1NL4-3; 1.0 μM, TZM-bl reporter cell line, Table 4): 26.5%; HIV-1 Infectivity % Inhibition Norm. to Δ-Nef @ 1 μM (HIV-1NL4-3; Table 1, TZM-bl cells, 1 μM, 48 h, 100% = Nef-defective HIV-1): 26.5%; Kd (HIV-1 NefNL4-3; Table 1, 1:1 Langmuir fit where the KD2 cell says '1 to 1 fitting', else 2-site fit, read-out: Nef NL4-3 Binding, SPR 1:1 or 2-site fitting KD1): 798 nM; Kd (HIV-1 NefNL4-3; Table 4, SPR fit 1:1 Langmuir, KD = koff/kon, read-out: KD): 798 nM
Oc1c(CCc2ccc(F)cc2)c(C2CCOCC2)nn1-c1nc2cccnc2[nH]1 [Compound I-314, 4-[2-(4-fluorophenyl)ethyl]-1-{3H-imidazo[4,5-b]pyridin-2-yl}-3-(oxan-4-yl)-1H-pyrazol-5-ol] | 100 | 100.1 | 0 | -1 | 2.97E- 03 | 705 | 1.79E + 01 minutes | 705 | 
O=C(OCc1ccccc1)N1CCC(Cc2nn(-c3nc4ccccc4[nH]3)c(O)c2CCc2ccc(F)cc2)CC1 [Compound I-764, benzyl4-{[1-(1H-1,3-benzodiazol-2-yl)-4-[2-(4-fluorophenyl)ethyl]-5-hydroxy-1H-pyrazol-3-yl]methyl}piperidine-1-carboxylate] |  | 100.6 |  | 47.4 |  |  |  |  | Nef NL4-3 Binding, SPR 1:1 or 2-site fitting KD1 (HIV-1 NefNL4-3; [7]): No Interaction
Oc1c(CC2CCOCC2)c(-c2ccc(F)cc2)nn1-c1nc2cc(F)ccc2[nH]1 [Compound I-173, 1-(5-fluoro-1H-1,3-benzodiazol-2-yl)-3-(4-fluorophenyl)-4-[(oxan-4-yl)methyl]-1H-pyrazol-5-ol] | 85.7 |  | 97.2 |  | 5.24E- 03 |  |  |  | Kd (HIV-1 NefNL4-3; [3]): 0.348 nM; T, minutes (residence time) (HIV-1 NefNL4-3; [5]): 7.12E + 04 minutes
Oc1c(CCc2ccc(F)cc2)c(CC2CCN(Cc3cccnc3)CC2)nn1-c1nc2ccccc2[nH]1 [Compound I-808, 1-(1H-1,3-benzodiazol-2-yl)-4-[2-(4-fluorophenyl)ethyl]-3-({1-[(pyridin-3-yl)methyl]piperidin-4-yl}methyl)-1H-pyrazol-5-ol] |  | 102.6 |  | 12.8 |  |  |  |  | Nef NL4-3 Binding, SPR 1:1 or 2-site fitting KD1 (HIV-1 NefNL4-3; [7]): No Interaction
C[C@@](O)(C(=O)N1CCC(CCc2c(C3CC3)nn(-c3nc4ccccc4[nH]3)c2O)CC1)C(F)(F)F [Compound I-783, (2R)-1-(4-{2-[1-(1H-1,3-benzodiazol-2-yl)-3-cyclopropyl-5-hydroxy-1H-pyrazol-4-yl]ethyl}piperidin-1-yl)-3,3,3-trifluoro-2-hydroxy-2-methylpropan-1-one] | 100 |  | 5.4 |  | 1.38E- 03 |  | 4.08E + 00 minutes | 3370 | 
Oc1c(CCc2ccc(F)cc2)c(C2CCCN(CC(F)(F)F)C2)nn1-c1nc2ccccc2[nH]1 (stereo not shown) [Compound I-1002, 1-(1H-1,3-benzodiazol-2-yl)-4-[2-(4-fluorophenyl)ethyl]-3-[1-(2,2,2-trifluoroethyl)piperidin-3-yl]-1H-pyrazol-5-ol] |  | 96.4 |  | 22.7 |  |  |  |  | Kd (HIV-1 NefNL4-3; [6]): 1710 nM
Cn1cccc(CCc2c(-c3ccc(C(F)(F)F)cc3)nn(-c3nc4ccccc4[nH]3)c2O)c1=O [Compound I-137, 3-{2-[1-(1H-1,3-benzodiazol-2-yl)-5-hydroxy-3-[4-(trifluoromethyl)phenyl]-1H-pyrazol-4-yl]ethyl}-1-methyl-1,2-dihydropyridin-2-one] | 99.4 | 99.4 | 0 | -1.4 | 1.02E- 03 | 243 | 5.36E + 00 minutes | 243 | 
O=S(=O)(c1cccnc1)N1CCCC(c2nn(-c3nc4ccccc4[nH]3)c(O)c2CCc2ccc(F)cc2)C1 (stereo not shown) [Compound I-758, 1-(1H-1,3-benzodiazol-2-yl)-4-[2-(4-fluorophenyl)ethyl]-3-[1-(pyridine-3-sulfonyl)piperidin-3-yl]-1H-pyrazol-5-ol] | 99.8 | 99.8 | 54.9 | 54.9 | 2.95E- 03 | 63.1 | 9.21E + 01 minutes | 68.1 | 
